Test results from patent US9199943B2, “2-(poly-substituted aryl)-6-amino-5-halo-4-pyrimidinecarboxylic acids and their use as herbicides” (Dow AgroSciences, LLC., priority 2006, dated 2015).

What was measured:
[1] = tested on: CHEAL = lambsquarter (Chenopodium album); test: General preemergence herbicidal activity, lambsquarter; type: in vivo; conditions: pre-emergent, visual score after 20-22 days
Excerpt: (§1) Seeds of the desired test plant species were planted in a soil matrix prepared by mixing a loam soil (43 percent silt, 19 percent clay, and 38 percent sand, with a pH of about 8.1 and an organic matter content of about 1.5 percent) and sand in a 70 to 30 ratio. The soil matrix was contained in plastic pots with a surface area of 113 square centimeters. When required to ensure good germination and healthy plants, a fungicide treatment and/or other chemical or physical treatment was applied. A weighed amount, determined by the highest rate to be tested, of each test compound was placed in a 25 mL glass vial and was dissolved in 6 mL of a 97:3 v/v (volume/volume) mixture of acetone and DMSO to obtain concentrated stock solutions. […] The stock solutions obtained were diluted with 18 mL of a 0.1% v/v aqueous solution of Tween® 20 surfactant to obtain spray solutions containing the highest application rate. Additional application rates were obtained by serial dilution of 12 mL of the high rate solution into a solution containing 3 mL of 97:3 v/v mixture of acetone and DMSO and 9 mL of the 0.1% v/v aqueous solution of Tween® 20 surfactant to obtain 1⁄2×, 1⁄4×, 1⁄8× and 1/16× rates of the high rate. Compound requirements are based upon a 12 mL application volume at a rate of 187 L/ha. Formulated compounds were applied to the plant material with an overhead Mandel track sprayer equipped with a […] nozzles calibrated to deliver 187 L/ha over an application area of 0.503 square meters at a spray height of 18 inches (43 cm) above the soil surface. Control plants were sprayed in the same manner with the solvent blank. The treated pots and control pots were placed in a greenhouse maintained with an approximate 15 hour photoperiod and temperatures of about 23-29° C. during the day and 22-28° C. during the night. Nutrients and water were added on a regular basis and supplemental lighting was provided with overhead metal halide 1000-Watt lamps as necessary. The water was added by top-irrigation. After 20-22 days, the condition of the test plants that germinated and grew as compared with that of the untreated plants that emerged and grew was determined visually and scored on a scale of 0 to 100 percent where 0 corresponds to no injury and 100 corresponds to complete kill or no emergence.

[2] = tested on: ABUTH = velvetleaf (Abutilon theophrasti); test: General preemergence herbicidal activity, velvetleaf; type: in vivo; conditions: pre-emergent, visual score after 20-22 days
Excerpt: as §1

[3] = tested on: CHEAL = lambsquarter (Chenopodium album); test: General postemergence herbicidal activity, lambsquarter; type: in vivo; conditions: post-emergent, 140 g ai/ha, visual score after 14 days (0 no injury, 100 complete kill); for pest or weed control at 140 g/ha: Chenopodium album, post-emergence, 336 h
Protocol: (§2) Seeds or nutlets of the desired test plant species were planted in Sun Gro MetroMix® 306 planting mixture, which typically has a pH of 6.0 to 6.8 and an organic matter content of about 30 percent, in plastic pots with a surface area of 64 square centimeters. When required to ensure good germination and healthy plants, a fungicide treatment and/or other chemical or physical treatment was applied. The plants were grown for 7-21 days in a greenhouse with an approximate 15 hour photoperiod which was maintained at about 23-29° C. during the day and 22-28° C. during the night. Nutrients and water were added on a regular basis and supplemental lighting was provided with overhead metal halide 1000-Watt lamps as necessary. The plants were employed for testing when they reached the first or second true leaf stage.
(§3) A weighed amount, determined by the highest rate to be tested, of each test compound was placed in a 25 mL glass vial and was dissolved in 4 mL of a 97:3 v/v (volume/volume) mixture of acetone and dimethyl sulfoxide (DMSO) to obtain concentrated stock solutions. […] The concentrated stock solutions obtained were diluted with 20 mL of an aqueous mixture containing acetone, water, isopropyl alcohol, DMSO, Atplus 411F crop oil concentrate, and Triton X-155 surfactant in a 48.5:39:10:1.5:1.0:0.02 v/v ratio to obtain spray solutions containing the highest application rates. Additional application rates were obtained by serial dilution of 12 mL of the high rate solution into a solution containing 2 mL of 97:3 v/v (volume/volume) mixture of acetone and dimethyl sulfoxide (DMSO) and 10 mL of an aqueous mixture containing acetone, water, isopropyl alcohol, DMSO, Atplus 411F crop oil concentrate, and Triton X-155 surfactant in a 48.5:39:10:1.5:1.0:0.02 v/v ratio to obtain ½×, ¼×, ⅛× and 1/16× rates of the high rate. Compound requirements are based upon a 12 mL application volume at a rate of 187 L/ha. Formulated compounds were applied to the plant material with an overhead Mandel track sprayer equipped with a 8002E nozzles calibrated to deliver 187 L/ha over an application area of 0.503 square meters at a spray height of 18 inches (43 cm) above the average plant canopy height. Control plants were sprayed in the same manner with the solvent blank.
(§4) The treated plants and control plants were placed in a greenhouse as described above and watered by sub-irrigation to prevent wash-off of the test compounds. After 14 days, the condition of the test plants as compared with that of the untreated plants was determined visually and scored on a scale of 0 to 100 percent where 0 corresponds to no injury and 100 corresponds to complete kill.
(§5) By applying the well-accepted probit analysis as described by J. Berkson in Journal of the […], 48, 565 (1953) and by D. Finney in “Probit Analysis” Cambridge University Press (1952), the above data can be used to calculate GR50 and GR80 values, which are defined as growth reduction factors that correspond to the effective dose of herbicide required to kill or control 50 percent or 80 percent, respectively, of a target plant.

[4] = tested on: ABUTH = velvetleaf (Abutilon theophrasti); test: General postemergence herbicidal activity, velvetleaf; type: in vivo; conditions: post-emergent, 140 g ai/ha, visual score after 14 days (0 no injury, 100 complete kill); for pest or weed control at 140 g/ha: Abutilon theophrasti, post-emergence, 336 h
Protocol: as §2, §3, §4, §5

[5] = tested on: HELAN = sunflower (Helianthus annuus); test: General preemergence herbicidal activity, sunflower; type: in vivo; conditions: pre-emergent, visual score after 20-22 days
Excerpt: as §1

[6] = tested on: HELAN = sunflower (Helainthus annuus); test: General postemergence herbicidal activity, sunflower; type: in vivo; conditions: post-emergent, 140 g ai/ha, visual score after 14 days (0 no injury, 100 complete kill); for pest or weed control at 140 g/ha: post-emergence, 336 h
Protocol: as §2, §3, §4, §5

[7] = Chenopodium album, pre-emergence, 480 h, 140 g ai/ha
[8] = Abutilon theophrasti, pre-emergence, 480 h, 140 g ai/ha
[9] = Helianthus annuus, pre-emergence, 480 h, 140 g ai/ha

In the case of `COc1cc(-c2nc(N)c(Cl)c(C(=O)O)n2)c(F)cc1Cl` [Compound 17, 6-Amino-5-chloro-2-(4-chloro-2-fluoro-5-methoxyphenyl)pyrimidine-4-10 carboxylic acid], the “% Control CHEAL” value ([1]; 140 g ai/ha) was 95%, the “% Control ABUTH” value ([2]; 140 g ai/ha) was 100% and the “% Control CHEAL” value [3] was 100%. The “% Control ABUTH” value [4] was 50%, the “% Control HELAN” value ([5]; 140 g ai/ha) was 0% and the “% Control HELAN” value [6] was 80%.

Compound `COc1c(Cl)ccc(-c2nc(N)c(Cl)c(C(=O)O)n2)c1Cl` [Compound 18, 6-Amino-5-chloro-2-(2,4-dichloro-3-methoxyphenyl)pyrimidine-4-carboxylic acid] has a pest or weed control at 140 g/ha [1, 7] of 100%, a pest or weed control at 140 g/ha [2, 8] of 100% and a pest or weed control at 140 g/ha [3] of 100%. For the same compound, the pest or weed control at 140 g/ha [4] was 75%, the pest or weed control at 140 g/ha [5, 9] was 100% and the pest or weed control at 140 g/ha [6] was 95%.

With `Cc1c(Cl)ccc(-c2nc(N)c(Cl)c(C(=O)O)n2)c1F` [Compound 20, 6-Amino-5-chloro-2-(4-chloro-2-fluoro-3-methylphenyl)pyrimidine-4-carboxylic acid] the pest or weed control at 140 g/ha [3] was 100%, the melting point was 210 to 212 °C and the pest or weed control at 140 g/ha [4] was 90%. The pest or weed control at 140 g/ha [6] was 100%.

`COc1c(Cl)ccc(-c2nc(N)c(Br)c(C(=O)O)n2)c1F` [Compound 25, 6-Amino-5-bromo-2-(4-chloro-2-fluoro-3-methoxyphenyl)pyrimidine-4-carboxylic acid] showed a pest or weed control at 140 g/ha [3] of 100%, a melting point of 173 to 175 °C and a pest or weed control at 140 g/ha [4] of 95%. For the same compound, the pest or weed control at 140 g/ha [6] was 100%.

For `CCOc1c(Cl)ccc(-c2nc(N)c(Cl)c(C(=O)O)n2)c1F` [Compound 19, 6-Amino-5-chloro-2-(4-chloro-3-ethoxy-2-fluorophenyl)pyrimidine-4-carboxylic acid], the pest or weed control at 280 g/ha ([1]; Chenopodium album, pre-emergence, 480 h, 280 g ai/ha) was 75%, the pest or weed control at 280 g/ha ([2]; Abutilon theophrasti, pre-emergence, 480 h, 280 g ai/ha) was 80% and the pest or weed control at 140 g/ha [3] was 90%. For the same compound, the melting point was 132 to 134 °C, the pest or weed control at 140 g/ha [4] was 95% and the pest or weed control at 280 g/ha ([5]; Helianthus annuus, pre-emergence, 480 h, 280 g ai/ha) was 90%. The pest or weed control at 140 g/ha [6] was 95%.

Compound `Nc1nc(-c2ccc(Cl)c(C(F)F)c2F)nc(C(=O)O)c1Cl` [Compound 24, 6-Amino-5-chloro-2-(4-chloro-3-difluoromethyl-2-fluorophenyl)pyrimidine-4-carboxylic acid] has a pest or weed control at 140 g/ha [3] of 95%, a melting point of 166 to 168 °C and a pest or weed control at 140 g/ha [4] of 80%. The pest or weed control at 140 g/ha [6] was 90%.

`Cc1c(F)sc(-c2nc(N)c(Cl)c(C(=O)O)n2)c1Cl` [Compound 16, 6-Amino-5-chloro-2-(4-chloro-2-fluoro-3-methylthiophenyl)pyrimidine-4-carboxylic acid] showed a melting point of 139 to 141 °C.

With `COC(=O)c1nc(-c2cc(OC)c(Cl)cc2F)nc(N)c1Cl` [Compound 5, 6-Amino-5-chloro-2-(4-chloro-2-fluoro-5-methoxyphenyl)pyrimidine-4-carboxylic acid methyl ester] the pest or weed control at 140 g/ha [3] was 100%, the pest or weed control at 140 g/ha [4] was 95% and the pest or weed control at 140 g/ha [6] was 95%.

With `COC(=O)c1nc(-c2ccc(Cl)c(SC(F)(F)F)c2F)nc(N)c1Cl` [Compound 14, 6-amino-5-chloro-2-(4-chloro-2-fluoro-3-trifluoro-methylthiophenyl)pyrimidine-4-carboxylic acid methyl ester] the pest or weed control at 140 g/ha [3] was 50%, the melting point was 167 to 169 °C and the pest or weed control at 140 g/ha [4] was 80%. It also gave a pest or weed control at 140 g/ha [6] of 90%.

Compound `Nc1nc(-c2ccc3c(c2F)OCO3)nc(C(=O)O)c1Cl` [Compound 22, 6-Amino-5-chloro-2-(4-fluoro-benzo[1,3]-dioxol-5-yl)pyrimidine-4-carboxylic acid] has a pest or weed control at 140 g/ha [3] of 95%, a pest or weed control at 140 g/ha [4] of 80% and a pest or weed control at 140 g/ha [6] of 90%.

With `COC(=O)c1nc(-c2ccc(Cl)c(C)c2F)nc(N)c1Cl` [Compound 11, 6-Amino-5-chloro-2-(4-chloro-2-fluoro-3-methylphenyl)pyrimidine-4-carboxylic acid methyl ester] the pest or weed control at 140 g/ha [1, 7] was 60%, the pest or weed control at 140 g/ha [2, 8] was 100% and the pest or weed control at 140 g/ha [3] was 95%. For the same compound, the melting point was 166 to 168 °C, the pest or weed control at 140 g/ha [4] was 95% and the pest or weed control at 140 g/ha [5, 9] was 100%. It also gave a pest or weed control at 140 g/ha [6] of 100%.

`COC(=O)c1nc(-c2ccc(Cl)c(OC)c2F)nc(N)c1F` [Compound 12, 6-amino-2-(4-chloro-2-fluoro-3-methoxy-phenyl)-5-fluoro-pyrimidine-4-carboxylic acid methyl ester] gave a pest or weed control at 140 g/ha [3] of 95%, a melting point of 200 to 202 °C and a pest or weed control at 140 g/ha [4] of 85%. It also gave a pest or weed control at 140 g/ha [6] of 100%.

`Nc1nc(-c2ccc(Cl)c(OCC(F)F)c2F)nc(C(=O)O)c1Cl` [Compound 21, 6-Amino-5-chloro-2-[4-chloro-3-(2,2-difluoroethoxy)-2-fluorophenyl]-pyrimidine-4-carboxylic acid] showed a pest or weed control at 140 g/ha [3] of 90%, a pest or weed control at 140 g/ha [4] of 0% and a pest or weed control at 140 g/ha [6] of 80%.

Compound `CN(C)c1c(Cl)ccc(-c2nc(N)c(Cl)c(C(=O)O)n2)c1F` [Compound 23, 6-Amino-5-chloro-2-(4-chloro-3-dimethylamino-2-fluorophenyl)pyrimidine-4-carboxylic acid] has a pest or weed control at 140 g/ha [3] of 100%, a melting point of 181 to 183 °C and a pest or weed control at 140 g/ha [4] of 95%. The pest or weed control at 140 g/ha [6] was 95%.
